Measurements from paper PMC6152084, “Synthesis of New Hydrazone Derivatives for MAO Enzymes Inhibitory Activity” (Molecules : A Journal of Synthetic Chemistry and Natural …, 2017).

Biological target: T1, hMAO-B (Homo sapiens, UniProt P27338)
T1 construct: purchased Sigma-Aldrich (Steinheim, Germany)
T1 sequence (P27338 1-520): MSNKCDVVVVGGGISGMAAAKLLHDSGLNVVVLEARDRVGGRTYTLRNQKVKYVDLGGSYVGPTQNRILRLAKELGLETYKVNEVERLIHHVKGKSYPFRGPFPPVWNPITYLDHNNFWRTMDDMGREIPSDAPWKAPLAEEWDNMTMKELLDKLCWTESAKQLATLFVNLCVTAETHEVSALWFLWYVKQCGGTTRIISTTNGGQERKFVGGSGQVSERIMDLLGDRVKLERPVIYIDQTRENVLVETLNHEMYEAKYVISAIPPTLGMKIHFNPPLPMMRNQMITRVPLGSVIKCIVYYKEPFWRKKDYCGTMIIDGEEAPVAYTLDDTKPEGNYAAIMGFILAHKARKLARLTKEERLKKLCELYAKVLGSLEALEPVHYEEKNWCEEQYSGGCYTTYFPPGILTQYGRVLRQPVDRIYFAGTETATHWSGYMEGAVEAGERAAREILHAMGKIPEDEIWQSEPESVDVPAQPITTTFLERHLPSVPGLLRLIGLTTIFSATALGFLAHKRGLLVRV
Assay: MAO-B inhibition assay (in vitro fluorometric Amplex Red method)
Assay type: biochemical
Conditions: for inhibition at 1000 µM: 10^−3 M; for inhibition at 100 µM: 10^−4 M

| Compound | inhibition at 1000 µM | inhibition at 100 µM |
| --- | --- | --- |
| CC1CCCCN1c1ccc(/C=N/Nc2ccccc2)cc1 (stereo not shown) [Compound 2a, 1-(4-(2-Methypiperidin-1-yl)benzylidene)-2-phenylhydrazine] | 35 ± 0.766% | 22.1 ± 0.443% |
| CN1CCN(c2ccc(C=NNc3ccccc3)cc2)CC1 [Compound 2b, 1-(4-(4-Methylpiperazine-1-yl)benzylidene)-2-phenylhydrazine] | 63.7 ± 1.03% | 43 ± 1.2% |
